Among the test systems are MOLT-4 leukemia; COLO 205 colon; SK-MEL-28 melanoma; UO-31 renal; OVCAR-4 ovarian; SW-620 colon; SR leukemia; NCI-H23 lung; A549 NSCLC; HS 578T breast; U251 CNS; HOP-62 NSCLC.
Common to all, as to test: growth of human tumour cells (NCI), 48 h

Where “and” joins values, the source holds several entries; their conditions need not be identical. Identical values can stand only once.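 Exposure lasted 48 hours, with cells grown in 96-well plates and compounds tested at five concentrations. Abbreviation: GI50, concentration required for 50% inhibition of growth. TGI marks complete inhibition of growth.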

Among the data in PubChem BioAssay (NCI) are TGI and GI50 values, retold here.

Regarding `Cc1cc(NC2=CC(=O)C(=O)c3ccccc32)no1`, the TGI came out at 31.7 µM in the assay on MOLT-4 leukemia; 31.6 µM with COLO 205 colon; 31.6 µM in the assay with SK-MEL-28 melanoma; 20.4 µM in the assay with UO-31 renal; 21.4 µM in the assay with OVCAR-4 ovarian; 14.6 µM in the assay on SW-620 colon. Besides, the TGI with SR leukemia is more than 48.1 µM; in the assay on NCI-H23 lung, 39.8 µM; in the assay with A549 NSCLC, 19.4 µM; in the assay with HS 578T breast, 40.9 µM; in the assay with U251 CNS it was 13.4 µM; in the assay with HOP-62 NSCLC it was 32.5 µM.

For `CCc1cccc(C(C)C)c1NC(=O)C(=O)C1C(=O)Nc2ccccc2S1=O` (stereo unspecified), the TGI with MOLT-4 leukemia, with COLO 205 colon, in the assay on SK-MEL-28 melanoma, in the assay with UO-31 renal, with OVCAR-4 ovarian and with SW-620 colon was more than 100 µM throughout. For the same compound, the TGI in the assay with SR leukemia, in the assay on NCI-H23 lung, in the assay with A549 NSCLC, in the assay on HS 578T breast, with U251 CNS and in the assay on HOP-62 NSCLC was more than 100 µM in each case.

`CC1OC(OC2C(OC(=O)[C@]34CCC(C)(C)C[C@H]3C3=CC[C@@H]5[C@@]6(C)CC[C@H](OC7OC(C(=O)O)C(O)C(O)C7O)C(C)(C)[C@@H]6CC[C@@]5(C)[C@]3(C)C[C@H]4O)OCC(O)C2O)C(O)C(O)C1OC1OCC(O)C(O)C1O` (stereo partly specified): the TGI in the assay on MOLT-4 leukemia is 34.6 µM and 74.8 µM; in the assay on COLO 205 colon, 12.3 µM and 3.98 µM; in the assay on SK-MEL-28 melanoma, 29.1 µM and 22 µM; in the assay with UO-31 renal it was 24.1 µM and 20.1 µM; in the assay on OVCAR-4 ovarian, 31.7 µM; in the assay with SW-620 colon, 32.8 µM and 27.7 µM. Moreover, the TGI in the assay on SR leukemia is 23 µM and > 100 µM; in the assay with NCI-H23 lung, 18.2 µM and 20.7 µM; in the assay with A549 NSCLC it was 25.3 µM and 20.4 µM; with HS 578T breast it was 39.5 µM and 39.3 µM; in the assay on U251 CNS, 29.1 µM and 24.3 µM; with HOP-62 NSCLC, 32.7 µM and 28.3 µM. The GI50 is 14.9 µM and 7.34 µM in the assay on SK-MEL-28 melanoma; 11.8 µM and 5.48 µM in the assay with A549 NSCLC.

For the compound `Cc1ccc(CC2(C(=O)O)Cc3ccc(C)cc3C2)cc1` (stereo unspecified), the TGI with MOLT-4 leukemia, in the assay on COLO 205 colon, with SK-MEL-28 melanoma, with UO-31 renal, with OVCAR-4 ovarian and with SW-620 colon was more than 100 µM in each case. Besides, the TGI in the assay on SR leukemia, in the assay with NCI-H23 lung, in the assay with A549 NSCLC, with HS 578T breast, with U251 CNS and in the assay on HOP-62 NSCLC was more than 100 µM throughout.

Turning to `CC[C@]12C=CCN3CC[C@@]4(c5cc(N=O)c(OC)cc5N(C)[C@H]4[C@@](O)(C(=O)OC)[C@@H]1OC(C)=O)[C@@H]32`, the TGI in the assay with MOLT-4 leukemia, in the assay on COLO 205 colon, in the assay on SK-MEL-28 melanoma, in the assay with UO-31 renal, in the assay on OVCAR-4 ovarian and with SW-620 colon was more than 100 µM each time. Moreover, the TGI is more than 100 µM in the assay on SR leukemia; more than 100 µM in the assay with NCI-H23 lung; more than 100 µM in the assay on A549 NSCLC; more than 100 µM in the assay with HS 578T breast; 33.3 µM in the assay on U251 CNS; more than 100 µM with HOP-62 NSCLC.

As for `CN1C(=O)C2(C)SC1(c1ccccc1)C1C(=O)N(c3ccccc3)C(=O)C12` (stereo unspecified), the TGI with MOLT-4 leukemia, in the assay with COLO 205 colon, in the assay on SK-MEL-28 melanoma, in the assay on UO-31 renal, with OVCAR-4 ovarian and with SW-620 colon was more than 100 µM in each case. The TGI with SR leukemia, in the assay with NCI-H23 lung, in the assay with A549 NSCLC, with HS 578T breast, in the assay on U251 CNS and with HOP-62 NSCLC was more than 100 µM in each case.

As to `Cc1ccc(CC(Cc2ccccc2C)C(=O)O)c(C(=O)O)c1` (stereo unspecified), the TGI with MOLT-4 leukemia, in the assay with COLO 205 colon, with SK-MEL-28 melanoma, with UO-31 renal, in the assay with OVCAR-4 ovarian and in the assay with SW-620 colon was more than 100 µM each time. In addition, the TGI in the assay on SR leukemia, in the assay with NCI-H23 lung, in the assay on A549 NSCLC, in the assay with HS 578T breast, with U251 CNS and with HOP-62 NSCLC was more than 100 µM in each case.

For the compound `COc1cc2c(cc1OC)OC(c1c(OC)ccc(OC)c1O)CC2` (stereo unspecified), the TGI in the assay with MOLT-4 leukemia, in the assay with COLO 205 colon, in the assay on SK-MEL-28 melanoma, in the assay on UO-31 renal, with OVCAR-4 ovarian and in the assay on SW-620 colon was more than 100 µM throughout. For the same compound, the TGI in the assay with SR leukemia, with NCI-H23 lung, in the assay on A549 NSCLC, with HS 578T breast, in the assay with U251 CNS and in the assay with HOP-62 NSCLC was more than 100 µM throughout.

Turning to `CNC(=O)C(C)NC(=O)C(Cc1ccccc1)NC(=O)c1ccccc1` (stereo unspecified), the TGI with MOLT-4 leukemia, in the assay with COLO 205 colon, in the assay with SK-MEL-28 melanoma, in the assay on UO-31 renal, with OVCAR-4 ovarian and in the assay with SW-620 colon was more than 100 µM throughout. Further, the TGI in the assay on SR leukemia, with NCI-H23 lung, in the assay with A549 NSCLC, in the assay on HS 578T breast, in the assay on U251 CNS and with HOP-62 NSCLC was more than 100 µM each time.

As to `COc1cc(OC)cc(OCc2nc3cc(C(F)(F)F)ccc3nc2-c2ccccc2)c1`, the TGI in the assay with MOLT-4 leukemia, in the assay on COLO 205 colon, with SK-MEL-28 melanoma, in the assay with UO-31 renal, with OVCAR-4 ovarian and with SW-620 colon was more than 100 µM each time. Moreover, the TGI in the assay on SR leukemia, in the assay with NCI-H23 lung, in the assay with A549 NSCLC, with HS 578T breast, with U251 CNS and in the assay with HOP-62 NSCLC was more than 100 µM in each case.

Consider `O=c1ccc2ccc(OP(=O)(O)O)cc2o1`, for which the TGI with MOLT-4 leukemia, in the assay on COLO 205 colon, in the assay with SK-MEL-28 melanoma, with UO-31 renal, with OVCAR-4 ovarian and in the assay on SW-620 colon was more than 100 µM throughout. For the same compound, the TGI in the assay on SR leukemia, in the assay on NCI-H23 lung, in the assay on A549 NSCLC, in the assay with HS 578T breast, in the assay with U251 CNS and with HOP-62 NSCLC was more than 100 µM in each case.

Take `CC(=O)c1nc2ccccc2n1C(C)C(=O)c1ccccc1` (stereo unspecified): the TGI in the assay with MOLT-4 leukemia, in the assay on COLO 205 colon, in the assay on SK-MEL-28 melanoma, in the assay on UO-31 renal, with OVCAR-4 ovarian and in the assay on SW-620 colon was more than 100 µM each time. Moreover, the TGI in the assay on SR leukemia, with NCI-H23 lung, in the assay on A549 NSCLC, in the assay on HS 578T breast, with U251 CNS and in the assay with HOP-62 NSCLC was more than 100 µM each time.
